Paper PMC12335596 (Scientific Reports, 2025)

The compounds below were run against urease (JBU; EC 3.5.1.5) (Canavalia ensiformis, UniProt P07374) (assay: In vitro urease inhibitory activity). Details: not given.
Type: biochemical, Jack bean

urease (JBU; EC 3.5.1.5), sequence (P07374 whole entry, looked up): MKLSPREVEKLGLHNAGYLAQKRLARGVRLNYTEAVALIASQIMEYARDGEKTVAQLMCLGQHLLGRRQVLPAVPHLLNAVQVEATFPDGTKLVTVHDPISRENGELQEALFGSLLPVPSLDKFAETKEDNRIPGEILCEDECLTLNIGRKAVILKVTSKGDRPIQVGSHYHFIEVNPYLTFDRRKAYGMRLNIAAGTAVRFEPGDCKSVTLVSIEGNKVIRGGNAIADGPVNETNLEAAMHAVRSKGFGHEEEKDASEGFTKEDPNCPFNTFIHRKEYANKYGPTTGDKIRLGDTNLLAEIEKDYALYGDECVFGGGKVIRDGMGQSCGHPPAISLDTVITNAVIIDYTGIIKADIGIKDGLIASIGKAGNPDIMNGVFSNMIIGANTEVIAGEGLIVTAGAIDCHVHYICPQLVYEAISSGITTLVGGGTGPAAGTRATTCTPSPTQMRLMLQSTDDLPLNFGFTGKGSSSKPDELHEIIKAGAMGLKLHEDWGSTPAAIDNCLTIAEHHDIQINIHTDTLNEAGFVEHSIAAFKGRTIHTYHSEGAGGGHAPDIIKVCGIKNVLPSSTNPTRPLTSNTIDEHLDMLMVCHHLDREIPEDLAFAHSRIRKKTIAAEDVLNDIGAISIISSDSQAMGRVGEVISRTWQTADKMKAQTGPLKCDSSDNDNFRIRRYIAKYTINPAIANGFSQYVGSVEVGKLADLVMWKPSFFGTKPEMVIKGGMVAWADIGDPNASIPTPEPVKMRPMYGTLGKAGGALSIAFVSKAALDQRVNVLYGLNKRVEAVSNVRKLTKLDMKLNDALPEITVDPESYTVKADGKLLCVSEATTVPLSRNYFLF

SMILES | IC50 [nM]
COc1cc(-c2nc3cc(C(=O)N4CCN(c5ccccc5)CC4)ccc3[nH]2)ccc1OCC(=O)Nc1cccc([N+](=O)[O-])c1 [Compound 9 L, 2-(2-Methoxy-4-(5-(4-phenylpiperazine-1-carbonyl)−1H-benzo[d]imidazol-2-yl)phenoxy)-N-(3-nitrophenyl)acetamide] | 150 ± 90
COc1cc(-c2nc3cc(C(=O)N4CCN(c5ccccc5)CC4)ccc3[nH]2)ccc1OCC(=O)Nc1ccccc1F [Compound 9 h, N-(2-Fluorophenyl)−2-(2-methoxy-4-(5-(4-phenylpiperazine-1-carbonyl)−1H-benzo[d]imidazol-2-yl)phenoxy)acetamide] | 2400 ± 360
COc1cc(-c2nc3cc(C(=O)N4CCN(c5ccccc5)CC4)ccc3[nH]2)ccc1OCC(=O)Nc1ccc([N+](=O)[O-])cc1 [Compound 9 m, 2-(2-Methoxy-4-(5-(4-phenylpiperazine-1-carbonyl)−1H-benzo[d]imidazol-2-yl)phenoxy)-N-(4-nitrophenyl)acetamide] | 350 ± 340
COc1cc(-c2nc3cc(C(=O)N4CCN(c5ccccc5)CC4)ccc3[nH]2)ccc1OCC(=O)Nc1ccccc1 [Compound 9a, 2-(2-Methoxy-4-(5-(4-phenylpiperazine-1-carbonyl)−1H-benzo[d]imidazol-2-yl)phenoxy)-N-phenylacetamide] | 11100 ± 1180
COc1cc(-c2nc3cc(C(=O)N4CCN(c5ccccc5)CC4)ccc3[nH]2)ccc1OCC(=O)Nc1ccccc1C [Compound 9b, 2-(2-Methoxy-4-(5-(4-phenylpiperazine-1-carbonyl)−1H-benzo[d]imidazol-2-yl)phenoxy)-N-(o-tolyl)acetamide] | 820 ± 100
COc1cc(-c2nc3cc(C(=O)N4CCN(c5ccccc5)CC4)ccc3[nH]2)ccc1OCC(=O)Nc1ccc(C)cc1 [Compound 9d, 2-(2-Methoxy-4-(5-(4-phenylpiperazine-1-carbonyl)−1H-benzo[d]imidazol-2-yl)phenoxy)-N-(p-tolyl)acetamide] | 12200 ± 1090
COc1cc(-c2nc3cc(C(=O)N4CCN(c5ccccc5)CC4)ccc3[nH]2)ccc1OCC(=O)Nc1c(C)cccc1C [Compound 9e, N-(2,6-Dimethylphenyl)−2-(2-methoxy-4-(5-(4-phenylpiperazine-1-carbonyl)−1H-benzo[d]imidazol-2-yl)phenoxy)acetamide] | 1260 ± 60
CCc1ccc(NC(=O)COc2ccc(-c3nc4cc(C(=O)N5CCN(c6ccccc6)CC5)ccc4[nH]3)cc2OC)cc1 [Compound 9f, N-(4-Ethylphenyl)−2-(2-methoxy-4-(5-(4-phenylpiperazine-1-carbonyl)−1H-benzo[d]imidazol-2-yl)phenoxy)acetamide] | 510 ± 100
COc1cc(-c2nc3cc(C(=O)N4CCN(c5ccccc5)CC4)ccc3[nH]2)ccc1OCC(=O)Nc1ccccc1Cl [Compound 9i, N-(2-Chlorophenyl)−2-(2-methoxy-4-(5-(4-phenylpiperazine-1-carbonyl)−1H-benzo[d]imidazol-2-yl)phenoxy)acetamide] | 9240 ± 370
COc1cc(-c2nc3cc(C(=O)N4CCN(c5ccccc5)CC4)ccc3[nH]2)ccc1OCC(=O)Nc1cccc(Cl)c1 [Compound 9j, N-(3-Chlorophenyl)−2-(2-methoxy-4-(5-(4-phenylpiperazine-1-carbonyl)−1H-benzo[d]imidazol-2-yl)phenoxy)acetamide] | 2720 ± 70
COc1cc(-c2nc3cc(C(=O)N4CCN(c5ccccc5)CC4)ccc3[nH]2)ccc1OCC(=O)Nc1ccc(Cl)cc1 [Compound 9k, N-(4-Chlorophenyl)−2-(2-methoxy-4-(5-(4-phenylpiperazine-1-carbonyl)−1H-benzo[d]imidazol-2-yl)phenoxy)acetamide] | 1780 ± 240

Same assay, conditions: ratio of IC50 values vs compound 9d

SMILES | fold more potent than 9d
COc1ccc(NC(=O)COc2ccc(-c3nc4cc(C(=O)N5CCN(c6ccccc6)CC5)ccc4[nH]3)cc2OC)cc1 [Compound 9 g, 2-(2-Methoxy-4-(5-(4-phenylpiperazine-1-carbonyl)−1H-benzo[d]imidazol-2-yl)phenoxy)-N-(4-methoxyphenyl)acetamide] | seven-fold

Same assay, conditions: ratio of IC50 values, standard thiourea vs compound

SMILES | fold more potent than standard thiourea (X)
COc1cc(-c2nc3cc(C(=O)N4CCN(c5ccccc5)CC4)ccc3[nH]2)ccc1OCC(=O)Nc1ccccc1 [Compound 9a, 2-(2-Methoxy-4-(5-(4-phenylpiperazine-1-carbonyl)−1H-benzo[d]imidazol-2-yl)phenoxy)-N-phenylacetamide] | two-fold

The compounds below were run against Jack bean urease (Canavalia ensiformis, UniProt P07374) (assay: Kinetic study, Lineweaver–Burk plot analysis). Details: varying concentrations of inhibitor and urea; Vmax decreased, Km increased.
Jack bean urease, sequence (P07374 whole entry, looked up): as above
Type: biochemical

SMILES | mode of enzyme inhibition
COc1cc(-c2nc3cc(C(=O)N4CCN(c5ccccc5)CC4)ccc3[nH]2)ccc1OCC(=O)Nc1cccc([N+](=O)[O-])c1 [Compound 9 L, 2-(2-Methoxy-4-(5-(4-phenylpiperazine-1-carbonyl)−1H-benzo[d]imidazol-2-yl)phenoxy)-N-(3-nitrophenyl)acetamide] | mixed inhibitor
